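The compound was tested at five concentrations on cells cultured in 96-well plates, with a 48-hour exposure period. TGI: concentration producing complete growth inhibition.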
Assays:
Assay in all cases: NCI-60 cell line screen, 48 h
[1] = system: 786-0 renal
[2] = system: A498 renal
[3] = system: A549 NSCLC
[4] = system: ACHN renal
[5] = system: BT-549 breast
[6] = system: CCRF-CEM leukemia
[7] = system: COLO 205 colon
[8] = system: DU-145 prostate
[9] = system: EKVX NSCLC
[10] = system: HCC-2998 colon
[11] = system: HCT-116 colon
[12] = system: HCT-15 colon
[13] = system: HL-60(TB) leukemia
[14] = system: HOP-62 NSCLC
[15] = system: HOP-92 NSCLC
[16] = system: HS 578T breast
[17] = system: HT29 colon
[18] = system: IGROV1 ovarian
[19] = system: K-562 leukemia
[20] = system: KM12 colon
[21] = system: LOX IMVI melanoma
[22] = system: MALME-3M melanoma
[23] = system: MCF7 breast
[24] = system: MDA-MB-231 breast
[25] = system: MDA-MB-435
[26] = system: MDA-N
[27] = system: MOLT-4 leukemia
[28] = system: NCI-H226 lung
[29] = system: NCI-H23 lung
[30] = system: NCI-H460 lung
[31] = system: NCI-H522 lung
[32] = system: NCI/ADR-RES ovarian
[33] = system: OVCAR-3 ovarian
[34] = system: OVCAR-4 ovarian
[35] = system: OVCAR-5 ovarian
[36] = system: OVCAR-8 ovarian
[37] = system: PC-3 prostate
[38] = system: RPMI-8226 leukemia
[39] = system: SF-295 CNS
[40] = system: SF-539 CNS
[41] = system: SK-MEL-28 melanoma
[42] = system: SK-MEL-5 melanoma
[43] = system: SN12C renal
[44] = system: SNB-19 CNS
[45] = system: SNB-75 CNS
[46] = system: SR leukemia
[47] = system: SW-620 colon
[48] = system: TK-10 renal
[49] = system: U251 CNS
[50] = system: UACC-257 melanoma
[51] = system: UO-31 renal
[52] = system: CAKI-1 renal
[53] = system: M14 melanoma
[54] = system: RXF 393 renal
[55] = system: SF-268 CNS
[56] = system: SK-MEL-2 melanoma
[57] = system: SK-OV-3 ovarian
[58] = system: T-47D breast
[59] = system: UACC-62 melanoma

In the case of `CCn1c(=O)c2c(=O)[nH][nH]c2c2ccccc21`, the TGI [1] is reported as > 100 µM, the TGI [2] is reported as > 100 µM and the TGI [3] is reported as > 100 µM. For the same compound, the TGI [4] was > 100 µM, the TGI [5] was > 100 µM and the TGI [6] was > 100 µM. For the same compound, the TGI [7] was > 100 µM, the TGI [8] was > 100 µM and the TGI [9] was > 100 µM. The TGI [10] was > 100 µM, the TGI [11] was > 100 µM and the TGI [12] was > 100 µM. For the same compound, the TGI [13] was > 100 µM, the TGI [14] was > 100 µM and the TGI [15] was > 100 µM. For the same compound, the TGI [16] was > 100 µM, the TGI [17] was > 100 µM and the TGI [18] was > 100 µM. The TGI [19] was > 100 µM, the TGI [20] was > 100 µM and the TGI [21] was > 100 µM. The TGI [22] was > 100 µM, the TGI [23] was > 100 µM and the TGI [24] was > 100 µM. The TGI [25] was > 100 µM, the TGI [26] was > 100 µM and the TGI [27] was > 100 µM. The TGI [28] was > 100 µM, the TGI [29] was > 100 µM and the TGI [30] was > 100 µM. The TGI [31] was > 100 µM, the TGI [32] was > 100 µM and the TGI [33] was > 100 µM. For the same compound, the TGI [34] was > 100 µM, the TGI [35] was > 100 µM and the TGI [36] was > 100 µM. The TGI [37] was > 100 µM, the TGI [38] was > 100 µM and the TGI [39] was > 100 µM. For the same compound, the TGI [40] was > 100 µM, the TGI [41] was > 100 µM and the TGI [42] was > 100 µM. For the same compound, the TGI [43] was > 100 µM, the TGI [44] was > 100 µM and the TGI [45] was > 100 µM. The TGI [46] was > 100 µM, the TGI [47] was > 100 µM and the TGI [48] was > 100 µM. For the same compound, the TGI [49] was > 100 µM, the TGI [50] was > 100 µM and the TGI [51] was > 100 µM.

`Cn1c(=O)nc2n(CCO)c(-c3ccccc3)c(-c3ccccc3)nc-2c1=O` was tested, and the TGI [1] was > 100 µM, the TGI [2] was > 100 µM and the TGI [3] was > 100 µM. For the same compound, the TGI [4] was > 100 µM, the TGI [5] was > 100 µM and the TGI [52] was > 100 µM. The TGI [6] was > 100 µM, the TGI [7] was > 100 µM and the TGI [8] was > 100 µM. For the same compound, the TGI [9] was > 100 µM, the TGI [10] was > 100 µM and the TGI [11] was > 100 µM. For the same compound, the TGI [12] was > 100 µM, the TGI [14] was > 100 µM and the TGI [15] was > 100 µM. For the same compound, the TGI [16] was > 100 µM, the TGI [17] was > 100 µM and the TGI [18] was > 100 µM. For the same compound, the TGI [19] was > 100 µM, the TGI [20] was > 100 µM and the TGI [21] was > 100 µM. The TGI [53] was > 100 µM, the TGI [22] was > 100 µM and the TGI [24] was > 100 µM. The TGI [25] was > 100 µM, the TGI [26] was > 100 µM and the TGI [27] was > 100 µM. For the same compound, the TGI [28] was > 100 µM, the TGI [29] was > 100 µM and the TGI [30] was > 100 µM. The TGI [31] was > 100 µM, the TGI [32] was > 100 µM and the TGI [33] was > 100 µM. The TGI [34] was > 100 µM, the TGI [35] was > 100 µM and the TGI [36] was > 100 µM. For the same compound, the TGI [37] was > 100 µM, the TGI [38] was > 100 µM and the TGI [54] was > 100 µM. The TGI [55] was > 100 µM, the TGI [39] was > 100 µM and the TGI [40] was > 100 µM. For the same compound, the TGI [56] was > 100 µM, the TGI [41] was > 100 µM and the TGI [42] was > 100 µM. The TGI [57] was > 100 µM, the TGI [43] was > 100 µM and the TGI [44] was > 100 µM. For the same compound, the TGI [45] was > 100 µM, the TGI [46] was > 100 µM and the TGI [47] was > 100 µM. For the same compound, the TGI [58] was > 100 µM, the TGI [48] was > 100 µM and the TGI [49] was > 100 µM. For the same compound, the TGI [50] was > 100 µM, the TGI [59] was > 100 µM and the TGI [51] was > 100 µM.

In the case of `CCCCCCCCCCCCCCCCC(C(=O)O)C(O)(CC(=O)O)C(=O)O` (centres undefined), the TGI [1] is reported as > 100 µM, the TGI [2] is reported as 47.6 µM and the TGI [4] is reported as > 100 µM. For the same compound, the TGI [5] was 51.3 µM, the TGI [52] was 46.3 µM and the TGI [6] was 79.2 µM. For the same compound, the TGI [7] was 35 µM, the TGI [8] was > 100 µM and the TGI [9] was 39.3 µM. For the same compound, the TGI [11] was 36.3 µM, the TGI [12] was > 100 µM and the TGI [13] was 34.4 µM. It also gave a TGI [14] of 34.1 µM, a TGI [16] of 58.6 µM and a TGI [17] of 45.4 µM. The TGI [18] was 46.4 µM, the TGI [19] was > 100 µM and the TGI [20] was 37.3 µM. The TGI [21] was 66.3 µM, the TGI [53] was 47.7 µM and the TGI [22] was > 100 µM. For the same compound, the TGI [23] was > 100 µM, the TGI [24] was 75.8 µM and the TGI [25] was > 100 µM. The TGI [26] was > 100 µM, the TGI [27] was 61.6 µM and the TGI [28] was 47.3 µM. The TGI [29] was 64.6 µM, the TGI [30] was 46.6 µM and the TGI [32] was > 100 µM. For the same compound, the TGI [33] was 35.8 µM, the TGI [35] was 35.1 µM and the TGI [36] was > 100 µM. It also gave a TGI [37] of 38.8 µM, a TGI [38] of 74.8 µM and a TGI [54] of 53.4 µM. The TGI [55] was 70.3 µM, the TGI [39] was 35.5 µM and the TGI [40] was 89.3 µM. For the same compound, the TGI [56] was 41.4 µM, the TGI [41] was 59.1 µM and the TGI [42] was > 100 µM. For the same compound, the TGI [57] was 36.1 µM, the TGI [43] was 53.6 µM and the TGI [44] was 79.3 µM. It also gave a TGI [45] of 43.8 µM, a TGI [46] of 81 µM and a TGI [47] of 46.6 µM. The TGI [48] was > 100 µM, the TGI [49] was 33.1 µM and the TGI [50] was > 100 µM. The TGI [59] was 48.9 µM and the TGI [51] was 45.4 µM.

`O=C1C(NCCc2cc(Br)c(O)c(Br)c2)=CC(=O)c2ncccc21` gave a TGI [1] of 34.4 µM, a TGI [2] of 9.88 µM and a TGI [3] of 9.89 µM. It also gave a TGI [4] of 24.9 µM, a TGI [52] of 25 µM and a TGI [6] of 23.5 µM. It also gave a TGI [7] of 19.2 µM, a TGI [8] of 12 µM and a TGI [9] of 30.7 µM. For the same compound, the TGI [10] was 26 µM, the TGI [11] was 12.4 µM and the TGI [12] was 31.9 µM. It also gave a TGI [13] of 12.7 µM, a TGI [14] of 9.99 µM and a TGI [15] of 47.5 µM. For the same compound, the TGI [16] was 9.2 µM, the TGI [17] was > 30.6 µM and the TGI [18] was 10.3 µM. It also gave a TGI [19] of 13.8 µM, a TGI [20] of 20.1 µM and a TGI [21] of 8.69 µM. The TGI [53] was 8.36 µM, the TGI [22] was 2.84 µM and the TGI [23] was 17.4 µM. The TGI [24] was 29.5 µM, the TGI [25] was 3.09 µM and the TGI [26] was 3.34 µM. It also gave a TGI [27] of 24.1 µM, a TGI [28] of 8.52 µM and a TGI [29] of 2.98 µM. It also gave a TGI [30] of 5.41 µM, a TGI [31] of 12.1 µM and a TGI [32] of 49.5 µM. The TGI [33] was 6.26 µM, the TGI [34] was 16.7 µM and the TGI [35] was 20.2 µM. For the same compound, the TGI [36] was 32.7 µM, the TGI [37] was > 100 µM and the TGI [38] was 23.2 µM. The TGI [54] was 29.1 µM, the TGI [55] was 40.3 µM and the TGI [39] was 12.9 µM. For the same compound, the TGI [40] was 5.36 µM, the TGI [56] was 29.9 µM and the TGI [41] was 10 µM. The TGI [42] was 2.83 µM, the TGI [57] was 68.1 µM and the TGI [43] was 14.7 µM. For the same compound, the TGI [44] was 27.5 µM, the TGI [45] was 5.34 µM and the TGI [46] was 6.46 µM. The TGI [47] was > 57.7 µM, the TGI [58] was 52 µM and the TGI [48] was 73 µM. It also gave a TGI [49] of 33 µM, a TGI [50] of 7.73 µM and a TGI [59] of 3.51 µM. The TGI [51] was 41.6 µM.

— PubChem BioAssay (NCI)
